# Results published in patent publication US20220047658A1, “TCM ADDITION AND SUBTRACTION PRESCRIPTION USED PREVENTION/TREATMENT OF METABOLIC SYNDROME AND COMPLICATIONS” (priority 2019, published 2022).
# Experiments:
# Format in all cases: in vivo
# [1] = tested on: db/db mice; assay: Quantitative test for UTP 24-h urine protein (diabetic nephropathy test); conditions: D29, RX-6 6 mg/kg, RX-12 12 mg/kg, MET 350 mg/kg, NOR 39.30 mg/DL, FIG. 3
# From the text: (§1) Overnight urine is collected and placed on crushed ice to test urine total protein, urine albumin, urine microalbumin, and urine creatinine.
# (§2) To investigate TCM complex for prevention and treatment of type II diabetes mellitus in animal model, grade SPF BKS.Cg-Dock7m+/+Leprdb/J mice (referred to as db/db mice for short) were used to conduct a hypoglycemic experiment validation. The mice were allowed with free access to feed and water. The mice were assigned into 4 groups (4 mice per group), and were administered intragastrically with the complex, once per day. […] The animals of each group were orally administered with the sample to Week 4. Urine and blood were collected 4 week later.
# (§3) The drugs in the drug groups included Poria, Semen Coicis, Rhizoma Dioscoreae, Semen Euryales, Semen Nelumbinis, Endothelium Corneum Gigeriae Galli, and Paeonia Lactiflora; the preparation method is that, Poria, Semen Coicis, Rhizoma Dioscoreae, Semen Euryales, Semen Nelumbinis, Endothelium Corneum Gigeriae Galli, and Paeonia Lactiflora were prepared and then compounded in a weight ratio of 1:1:1:1:1:1:2 to produce a powder. […]
# Quantitative test for 24 h urine protein (UTP24) is a urine test method in which 24-h discharged total urine is collected to conduct a […] test.
# [2] = tested on: db/db mice; assay: Measurement of fasting blood glucose level; conditions: MET 350 mg/kg, 2 d after oral administration, data not shown
# Method: Fasting blood glucose means blood glucose level under the basal condition, reflecting the basal function of pancreatic islet B cells, and is an important criterion for diagnosis of diabetes mellitus. Oral glucose tolerance test means determination of fasting blood glucose after animals are fasted, and then animals are administered with the drug and administered intragastrically with glucose solution at the corresponding timepoints, and blood glucose is measured prior to intragastric administration of glucose, and 30 min, 60 min and 120 min after intragastric administration of glucose.
# as §2, with “later. […]” for “later.”
# After animals were fasted for 4-6 h, blood was collected at tail end to measure fasting blood glucose. Fasting blood glucose was measured for 4 times, i.e.: prior to grouping, and D2, D7, and D15 after administration of the drug.
# [3] = tested on: db/db mice; assay: Non-fasting blood glucose level; conditions: MET 350 mg/kg, D4 after oral administration
# Method: The measured value of 2-H postprandial blood glucose test is the most valuable and may reflect reserve function of pancreatic islet B cells. Blood glucose is measured after animals eat feed.
# as §2, with “later. […]” for “later.”
# The animals were fed randomly and then blood was collected at tail end to measure non-fasting blood glucose level. Fasting blood glucose was measured for […], i.e.: prior to grouping, and 24 h, D4, D7, D15, D21, and D27 after administration of the drug.
# [4] = tested on: db/db mice; assay: Measurement of glycosylated hemoglobin (HbAlc) concentration; conditions: D29, once per day intragastric, RX-6 6 mg/kg, RX-12 12 mg/kg, MET 350 mg/kg, NOR 8.85%, FIG. 2
# From the text: Glycosylated hemoglobin (GHb) is a product hemoglobin in red blood cells, conjugated with saccharides in serum. GHb is formed via slow, persistent, and irreversible glycation; its content is dependent on blood glucose concentration, and exposure duration of blood glucose to hemoglobin, and independent of blood collection time, patients' fasting or non-fasting status, or insulin use or non-use, etc. Therefore, GHb may efficiently reflect blood glucose control in patients with diabetes mellitus in the past 1-2 month.
# Test method: after animal are fasted, 20 μL of whole blood is collected and placed into an EP tube containing HbAlc diluent; the content of HbAlc is measured by a full-automatic analyzer. The specific method refers to the Instructions of the Kit.
# To investigate TCM complex for prevention and treatment of type II diabetes mellitus in animal model, grade SPF BKS.Cg-Dock7m+/+Leprdb/J mice (referred to as db/db mice for short) were used to conduct a hypoglycemic experiment validation. The mice were allowed with free access to feed and water. […]
# The concentration was measured on D29 after oral administration of the drug. The animals were fasted for 4-6 h, and then anesthetized by inhalation of isoflurane; […] of whole blood was collected from orbital venous plexus and placed into a EP tube containing HbAlc diluent; the content of HbAlc was measured by a full-automatic analyzer. […]
# [5] = tested on: db/db mice; assay: Test for urine creatinine (diabetic nephropathy test); conditions: 29-d raise, MET 350 mg/kg, FIG. 6
# From the text: as §1, §2
# as §3, with “powder. The obtained powder was diluted in a certain proportion to obtain RX−6 of the low dose (6 mg/kg) drug group, and RX-12 of the high dose (12 mg/kg) drug group.” for “powder.”
# [6] = tested on: db/db mice; assay: Test for mAlb urine microalbumin (diabetic nephropathy test); conditions: D29, RX-6 6 mg/kg, RX-12 12 mg/kg, MET 350 mg/kg, NOR 20.10 mg/L, FIG. 5
# From the text: as §1, §2
# as §3, with “powder. The obtained powder was diluted in a certain proportion to obtain RX−6 of the low dose (6 mg/kg) drug group, and RX-12 of the high dose (12 mg/kg) drug group.” for “powder.”
compound,measurement,setting,value
"CN(C)C(=N)N=C(N)N [MET, metformin]",UTP24 h urine protein,[1],39.65 mg/dL
same,fasting blood glucose level compared with negative control group NOR,[2],less than that in negative control group NOR
same,non-fasting blood glucose level compared with control,[3],less than that in the positive control
same,glycosylated hemoglobin value (HbAlc),[4],6%
same,urine creatinine increased than that in the negative control group NOR,[5],10.5 µM
same,mAlb urine microalbumin content,[6],8.50 mg/L
